Measurements published in PubChem BioAssay AID300 (DTP/NCI, 2004).
Where “and” joins values, the source holds several entries; their conditions need not be identical. Identical values can stand only once. Results filed as inconclusive are left out. Rule for the calls: active = survival T/C of 150% or more; inactive = T/C below 125% in these data. *1 amine or outer side, *2 acyl side, *3 side chain or, on linkers, in order; H or OH if unused. Where a SMILES comes first, the peptide text is derived from it. Bridges are numbered along the chain shown (N, C = ends). Roman numbers before positions name the chains, in order. [ ]: non-standard residue; d: D form. Actinocin(9to1) = Cc1c2oc3c(C)ccc(C(=O)[*:1])c3nc-2c(C(=O)[*:2])c(N)c1=O; aThr = C[C@H](O)[C@H](N)C(=O)O; NMeV = CN[CH](C(=O)O)C(C)C; Sar = CNCC(=O)O

Test system: Madison 109 lung carcinoma i.m., mice, median survival
Assay: NCI In Vivo Anticancer Drug Screen. Data for tumor model Madison 109 Lung Carcinoma (intramuscular) in unknown mice
Settings: endpoint: median survival time, higher = longer survival
Method: The antitumor activity of compounds was measured in mice bearing transplantable tumors. Survival or tumor size were measured and the results are expressed as the measurement made in the treated group (T) divided by the measurement made in the vehicle treated control group (C). The tumor model used in this assay is Madison 109 Lung Carcinoma (intramuscular) in unknown mice

[1] = dose: 10.0 mg/kg/injection, schedule: Q02DX009 (ip), vehicle: water
[2] = dose: 20.0 mg/kg/injection, schedule: Q02DX009 (ip), vehicle: water
[3] = dose: 80.0 mg/kg/injection, schedule: Q02DX009 (ip), vehicle: water
[4] = dose: 0.2 mg/kg/injection, schedule: Q01DX009 (ip), vehicle: saline
[5] = dose: 1.0 mg/kg/injection, schedule: Q01DX009 (ip), vehicle: saline

Measured: T/C

O=[N+]([O-])c1ccc([N+](=O)[O-])c(Cl)c1
inactive: [1] 122 % of control | [2] 122 % of control | dose: 40.0 mg/kg/injection, schedule: Q02DX009 (ip), vehicle: water 122 % of control | [3] 90 % of control

C1CN1c1nc(N2CC2)nc(N2CC2)n1
inactive: dose: 0.02 mg/kg/injection, schedule: Q01DX009 (ip), vehicle: saline 101 % of control | dose: 0.05 mg/kg/injection, schedule: Q01DX009 (ip), vehicle: saline 110 % of control | dose: 0.1 mg/kg/injection, schedule: Q01DX009 (ip), vehicle: saline 112 % of control | [4] 102 % of control

O=C(O)c1c(Cl)c(Cl)c(Cl)c(Cl)c1-c1c2cc(I)c(=O)c(I)c-2oc2c(I)c(O)c(I)cc12
inactive: dose: 4.0 mg/kg/injection, schedule: Q01DX009 (ip), vehicle: water 90 % of control | dose: 8.0 mg/kg/injection, schedule: Q01DX009 (ip), vehicle: water 102 % of control | dose: 25.0 mg/kg/injection, schedule: Q01DX009 (ip), vehicle: water 100 % of control | dose: 32.0 mg/kg/injection, schedule: Q01DX009 (ip), vehicle: water 107 % of control | dose: 50.0 mg/kg/injection, schedule: Q01DX009 (ip), vehicle: water 106 % of control | dose: 64.0 mg/kg/injection, schedule: Q01DX009 (ip), vehicle: water 99 % of control

O=[N+]([O-])c1ccc(Cl)cc1[N+](=O)[O-]
inactive: [1] 121 % of control | [2] 118 % of control | [3] 119 % of control

CN(C)c1nc(N(C)C)nc(N(C)C)n1
inactive: dose: 20.0 mg/kg/injection, schedule: Q01DX009 (ip), vehicle: other 89 % of control | dose: 40.0 mg/kg/injection, schedule: Q01DX009 (ip), vehicle: other 96 % of control

O=C1OC(C(O)CO)C(O)=C1O (stereo unspecified)
inactive: dose: 400.0 mg/kg/injection, schedule: Q01DX009 (ip), vehicle: other 98 % of control | dose: 800.0 mg/kg/injection, schedule: Q01DX009 (ip), vehicle: other 96 % of control | dose: 1600.0 mg/kg/injection, schedule: Q01DX009 (ip), vehicle: other 98 % of control

CO[C@H](C(=O)[C@@H](O)[C@@H](C)O)[C@@H]1Cc2cc3cc(OC4CC(OC5CC(O)C(O)C(C)O5)C(O)C(C)O4)c(C)c(O)c3c(O)c2C(=O)[C@H]1OC1CC(OC2CC(OC3CC(C)(O)C(O)C(C)O3)C(O)C(C)O2)C(O)C(C)O1 (stereo partly specified)
inactive: dose: 0.05 mg/kg/injection, schedule: Q01DX009 (ip), vehicle: water 100 % of control | dose: 0.1 mg/kg/injection, schedule: Q01DX009 (ip), vehicle: water 100 % of control | dose: 0.2 mg/kg/injection, schedule: Q01DX009 (ip), vehicle: water 115 % of control | dose: 0.3 mg/kg/injection, schedule: Q01DX009 (ip), vehicle: water 86 % of control and 110 % of control | dose: 0.4 mg/kg/injection, schedule: Q01DX009 (ip), vehicle: water 108 % of control and 115 % of control | dose: 0.5 mg/kg/injection, schedule: Q01DX009 (ip), vehicle: water 103 % of control

CO[C@H]1/C=C/O[C@@]2(C)Oc3c(C)c(O)c4c(O)c(c(/C=N/N5C(C)CN(Cc6ccccc6)CC5C)c(O)c4c3C2=O)NC(=O)/C(C)=C\C=C\[C@H](C)[C@H](O)[C@@H](C)[C@@H](O)[C@@H](C)[C@H](OC(C)=O)[C@@H]1C (stereo partly specified)
inactive: dose: 16.0 mg/kg/injection, schedule: Q03HX008 (ip), vehicle: saline 114 % of control | dose: 16.0 mg/kg/injection, schedule: Q03HX024 (ip), vehicle: saline 101 % of control | dose: 32.0 mg/kg/injection, schedule: Q03HX008 (ip), vehicle: saline 116 % of control | dose: 64.0 mg/kg/injection, schedule: Q01DX009 (ip), vehicle: saline 108 % of control | dose: 64.0 mg/kg/injection, schedule: Q03HX008 (ip), vehicle: saline 109 % of control | dose: 64.0 mg/kg/injection, schedule: Q04DX003 (ip), vehicle: saline 103 % of control | dose: 128.0 mg/kg/injection, schedule: Q01DX001 (ip), vehicle: saline 105 % of control | dose: 128.0 mg/kg/injection, schedule: Q04DX003 (ip), vehicle: saline 106 % of control | dose: 256.0 mg/kg/injection, schedule: Q01DX001 (ip), vehicle: saline 95 % of control

CC1CCC(NC(=O)N(CCCl)N=O)CC1 (stereo unspecified)
inactive: dose: 0.5 mg/kg/injection, schedule: Q01DX009 (ip), vehicle: saline 100 % of control | [5] 93 % of control | dose: 2.0 mg/kg/injection, schedule: Q01DX001 (ip), vehicle: saline 88 % of control | dose: 2.0 mg/kg/injection, schedule: Q01DX009 (ip), vehicle: saline 95 % of control | dose: 4.0 mg/kg/injection, schedule: Q01DX001 (ip), vehicle: saline 90 % of control | dose: 4.0 mg/kg/injection, schedule: Q01DX009 (ip), vehicle: saline 107 % of control | dose: 8.0 mg/kg/injection, schedule: Q01DX001 (ip), vehicle: saline 93 % of control | dose: 8.0 mg/kg/injection, schedule: Q01DX009 (ip), vehicle: saline 115 % of control | dose: 16.0 mg/kg/injection, schedule: Q01DX001 (ip), vehicle: saline 100 % of control | dose: 32.0 mg/kg/injection, schedule: Q01DX001 (ip), vehicle: saline 106 % of control

CC(=O)c1cccc(NC2C(N)C(NC(=O)N(C)C)(C(C)O)C(C)(O)C2(O)COC(=O)c2c(C)cccc2O)c1 (stereo unspecified)
inactive: dose: 0.05 mg/kg/injection, schedule: Q01DX009 (ip), vehicle: other 111 % of control | dose: 0.3 mg/kg/injection, schedule: Q01DX009 (ip), vehicle: other 96 % of control | dose: 0.6 mg/kg/injection, schedule: Q01DX009 (ip), vehicle: other 119 % of control

Cc1c2oc3c(C)ccc(C(=O)N[C@@H]4C(=O)N[C@H](C(C)C)C(=O)N5CCC[C@H]5C(=O)N(C)CC(=O)N(C)[C@@H](C(C)C)C(=O)O[C@H]4C)c3nc-2c(C(=O)N[C@@H]2C(=O)N[C@H](C(C)C)C(=O)N3CCC[C@H]3C(=O)N(C)CC(=O)N(C)[C@@H](C(C)C)C(=O)O[C@H]2C)c(N)c1=O (I: [aThr][dV]P[Sar][NMeV] / II: [aThr][dV]P[Sar][NMeV]; ester I:1-I:C, II:1-II:C; linker I:N-II:N via Actinocin(9to1))
inactive: dose: 0.04 mg/kg/injection, schedule: Q02DX009 (ip), vehicle: water 100 % of control | dose: 0.05 mg/kg/injection, schedule: Q02DX009 (ip), vehicle: water 108 % of control | dose: 0.05 mg/kg/injection, schedule: Q03DX009 (ip), vehicle: water 110 % of control | dose: 0.05 mg/kg/injection, schedule: Q04DX009 (ip), vehicle: water 106 % of control | dose: 0.06 mg/kg/injection, schedule: Q02DX009 (ip), vehicle: water 100 % of control | dose: 0.08 mg/kg/injection, schedule: Q02DX009 (ip), vehicle: water 121 % of control | dose: 0.08 mg/kg/injection, schedule: Q04DX009 (ip), vehicle: water 110 % of control | dose: 0.1 mg/kg/injection, schedule: Q01DX001 (ip), vehicle: water 112 % of control | dose: 0.2 mg/kg/injection, schedule: Q01DX001 (ip), vehicle: water 110 % of control | dose: 0.4 mg/kg/injection, schedule: Q01DX001 (ip), vehicle: water 110 % of control

Cc1c2oc3c(C)ccc(C(=O)NC4C(=O)NC(C(C)C)C(=O)N5CCCC5C(=O)N(C)CC(=O)N(C)C(C(C)C)C(=O)OC4C)c3nc-2c(C(=O)NC2C(=O)NC(C(C)C)C(=O)N3CCCC3C(=O)N(C)CC(=O)N(C)C(C(C)C)C(=O)OC2C)c(N)c1=O (stereo unspecified) (I: TVP[Sar][NMeV] / II: TVP[Sar][NMeV]; ester I:1-I:C, II:1-II:C; linker I:N-II:N via Actinocin(9to1); configuration not given here)
inactive: dose: 0.64 mg/kg/injection, schedule: Q01DX009 (ip), vehicle: water 118 % of control | dose: 0.84 mg/kg/injection, schedule: Q01DX009 (ip), vehicle: water 124 % of control

N[C@@H](Cc1ccc(N(CCCl)CCCl)cc1)C(=O)O
inactive: [4] 102 % of control | dose: 0.4 mg/kg/injection, schedule: Q01DX009 (ip), vehicle: saline 100 % of control | dose: 0.6 mg/kg/injection, schedule: Q01DX009 (ip), vehicle: saline 100 % of control | dose: 0.8 mg/kg/injection, schedule: Q01DX009 (ip), vehicle: saline 111 % of control | [5] 105 % of control

Cc1c2ccncc2c(C)c2c1[nH]c1ccccc12
inactive: dose: 2.0 mg/kg/injection, schedule: Q01DX009 (ip), vehicle: other 119 % of control | dose: 4.0 mg/kg/injection, schedule: Q01DX009 (ip), vehicle: other 121 % of control | dose: 8.0 mg/kg/injection, schedule: Q01DX009 (ip), vehicle: other 111 % of control | dose: 16.0 mg/kg/injection, schedule: Q01DX009 (ip), vehicle: other 111 % of control
